From patent US20230115534A1 (ARKUDA THERAPEUTICS, priority 2019, published 2023)

System: progranulin (PGRN)
Test: progranulin induction cellular assay (PGRN assay), ELISA-based readout
Details: PGRN assay as described: mouse primary microglia, primary cortical neurons and BV-2 cell lines; secreted mouse PGRN in medium by ELISA; cell type for Table B not specified
Description: Cellular Assays: To measure the efficacy of compounds, a progranulin induction cellular assay in mouse primary microglia (pMG), primary cortical neurons, and BV-2 cell lines is used. BV-2 cells are split the day before plating into a 96 well plate format at approximately 80%. Cells should be plated the day before and allowed for 1 hour attachment period and for 16 hour incubation. Levels of progranulin secreted into the cell culture medium or retained in the cell lysate can be quantified using an ELISA-based readout and measurement of secreted mouse PGRN in the medium was assessed by the methodology published by Ghidoni et al. 2012. Standard ELISA kits to measure PGRN are available from vendors such as Adipogen, R&D, and Biovendor.
Table B below presents the results of a PGRN assay as described above.

Structure (SMILES): CN(C)[C@H]1C[C@@H](NC(=O)N2CCc3ccccc3[C@@H]2c2ccc(F)cc2)C1 [Compound 4069]
- EC50: 672 nM

Structure (SMILES): N[C@H]1C[C@@H](CC(=O)N2CCc3ccccc3[C@@H]2c2ccc(F)cc2)C1 [Compound 4121]
- EC50: 365 nM

Structure (SMILES): N[C@H]1C[C@H](CC(=O)N2CCc3ccccc3[C@@H]2c2ccc(F)cc2)C1 [Compound 4122]
- EC50: 208 nM

Structure (SMILES): NC[C@@H]1CC[C@H]1OC(=O)N1CCc2ccccc2[C@@H]1c1ccc(F)cc1 [Compound 4123]
- EC50: > 2100 nM

Structure (SMILES): NC[C@@H]1CC[C@@H]1OC(=O)N1CCc2ccccc2[C@@H]1c1ccc(F)cc1 [Compound 4124]
- EC50: 347 nM

Structure (SMILES): CN(C)[C@H]1C[C@H](CC(=O)N2CCc3ccccc3[C@@H]2c2ccc(F)cc2)C1 [Compound 4125]
- EC50: 280 nM

Structure (SMILES): CN(C)[C@H]1C[C@@H](CC(=O)N2CCc3ccccc3[C@@H]2c2ccc(F)cc2)C1 [Compound 4126]
- EC50: 571 nM

Structure (SMILES): CN(C)[C@H]1C[C@@H](OC(=O)N2CCc3ccccc3[C@@H]2c2ccc(F)cc2)C1 [Compound 4127]
- EC50: 773 nM

Structure (SMILES): CN(C)[C@H]1C[C@H](OC(=O)N2CCc3ccccc3[C@@H]2c2ccc(F)cc2)C1 [Compound 4128]
- EC50: 319 nM

Structure (SMILES): CCN[C@H]1C[C@@H](OC(=O)N2CCc3ccccc3[C@@H]2c2ccc(F)cc2)C1 [Compound 4129]
- EC50: 318 nM

Structure (SMILES): CCN[C@H]1C[C@H](OC(=O)N2CCc3ccccc3[C@@H]2c2ccc(F)cc2)C1 [Compound 4130]
- EC50: 740 nM

Structure (SMILES): N[C@@H]1CC[C@@H]1CNC(=O)N1CCc2ccccc2[C@@H]1c1ccc(F)cc1 [Compound 4131]
- EC50: 359 nM

Structure (SMILES): N[C@@H]1CC[C@@H]1COC(=O)N1CCc2ccccc2[C@@H]1c1ccc(F)cc1 [Compound 4132, ((1S,2R)-2-aminocyclobutyl)methyl (S)-1-(4-fluorophenyl)-3,4-dihydroisoquinoline-2(1H)-carboxylate]
- EC50: 1010 nM

Structure (SMILES): N[C@H]1CC[C@H]1COC(=O)N1CCc2ccccc2[C@@H]1c1ccc(F)cc1 [Compound 4133, ((1R,2S)-2-aminocyclobutyl)methyl (S)-1-(4-fluorophenyl)-3,4-dihydroisoquinoline-2(1H)-carboxylate]
- EC50: 864 nM

Structure (SMILES): N[C@H]1CC[C@@H]1COC(=O)N1CCc2ccccc2[C@@H]1c1ccc(F)cc1 [Compound 4134, ((1S,2S)-2-aminocyclobutyl)methyl (S)-1-(4-fluorophenyl)-3,4-dihydroisoquinoline-2(1H)-carboxylate]
- EC50: 1290 nM

Structure (SMILES): NC12CC(NC(=O)N3CCc4ccccc4[C@@H]3c3ccccc3)(C1)C2 [Compound 4135, (S)—N-(3-aminobicyclo[1.1.1]pentan-1-yl)-1-phenyl-3,4-dihydroisoquinoline-2(1H)-carboxamide]
- EC50: 1610 nM

Structure (SMILES): NC12CC(OC(=O)N3CCc4ccccc4[C@@H]3c3ccccc3)(C1)C2 [Compound 4136, 3-aminobicyclo[1.1.1]pentan-1-yl (S)-1-phenyl-3,4-dihydroisoquinoline-2(1H)-carboxylate]
- EC50: 604 nM

Structure (SMILES): N[C@H]1CC[C@@H](C(=O)N2CCc3ccccc3[C@@H]2c2ccc(F)cc2)CC1 [Compound 4143, cis-(S)-(4-aminocyclohexyl)(1-(4-fluorophenyl)-3,4-dihydroisoquinolin-2(1H)-yl)methanone]
- EC50: 84 nM

Structure (SMILES): N[C@H]1CC[C@H](C(=O)N2CCc3ccccc3[C@@H]2c2ccc(F)cc2)CC1 [Compound 4144]
- EC50: 3120 nM

Structure (SMILES): O=C(O[C@H]1C[C@@H](NCCO)C1)N1CCc2ccccc2[C@@H]1c1ccc(F)cc1 [Compound 4145, cis-3-((2-hydroxyethyl)amino)cyclobutyl (S)-1-(4-fluorophenyl)-3,4-dihydroisoquinoline-2(1H)-carboxylate]
- EC50: 191 nM

Structure (SMILES): O=C(O[C@H]1C[C@H](NCCO)C1)N1CCc2ccccc2[C@@H]1c1ccc(F)cc1 [Compound 4146, trans-3-((2-hydroxyethyl)amino)cyclobutyl (S)-1-(4-fluorophenyl)-3,4-dihydroisoquinoline-2(1H)-carboxylate]
- EC50: 89 nM

Structure (SMILES): N[C@H]1C[C@H](C(=O)N2CCc3ccccc3[C@@H]2c2ccc(F)cc2)C1 [Compound 4147, (trans-3-aminocyclobutyl)((S)-1-(4-fluorophenyl)-3,4-dihydroisoquinolin-2(1H)-yl)methanone]
- EC50: 99 nM

Structure (SMILES): N[C@H]1C[C@@H](C(=O)N2CCc3ccccc3[C@@H]2c2ccc(F)cc2)C1 [Compound 4148, (cis-3-aminocyclobutyl)((S)-1-(4-fluorophenyl)-3,4-dihydroisoquinolin-2(1H)-yl)methanone]
- EC50: 92 nM

Structure (SMILES): NC[C@H]1C[C@H](C(=O)N2CCc3ccccc3[C@@H]2c2ccc(F)cc2)C1 [Compound 4149, (trans-3-(aminomethyl)cyclobutyl)((S)-1-(4-fluorophenyl)-3,4-dihydroisoquinolin-2(1H)-yl)methanone]
- EC50: 245 nM

Structure (SMILES): NC[C@H]1C[C@@H](C(=O)N2CCc3ccccc3[C@@H]2c2ccc(F)cc2)C1 [Compound 4150, (cis-3-(aminomethyl)cyclobutyl)((S)-1-(4-fluorophenyl)-3,4-dihydroisoquinolin-2(1H)-yl)methanone]
- EC50: 79 nM

Structure (SMILES): N[C@]1(CO)C[C@H](C(=O)N2CCc3ccccc3[C@@H]2c2ccc(F)cc2)C1 [Compound 4151, (cis-3-amino-3-(hydroxymethyl)cyclobutyl)((S)-1-(4-fluorophenyl)-3,4-dihydroisoquinolin-2(1H)-yl)methanone]
- EC50: 83 nM

Structure (SMILES): N[C@]1(CO)C[C@@H](C(=O)N2CCc3ccccc3[C@@H]2c2ccc(F)cc2)C1 [Compound 4152, (trans-3-amino-3-(hydroxymethyl)cyclobutyl)((S)-1-(4-fluorophenyl)-3,4-dihydroisoquinolin-2(1H)-yl)methanone]
- EC50: 245 nM

Structure (SMILES): NC[C@]1(O)C[C@H](C(=O)N2CCc3ccccc3[C@@H]2c2ccc(F)cc2)C1 [Compound 4154, (trans-3-(aminomethyl)-3-hydroxycyclobutyl)((S)-1-(4-fluorophenyl)-3,4-dihydroisoquinolin-2(1H)-yl)methanone]
- EC50: 112 nM

Structure (SMILES): N[C@H]1C[C@@H](OC(=O)N2CCc3ccccc3[C@@H]2c2ccc(F)cc2)C1 [Compound 4155, cis-3-aminocyclobutyl (S)-1-(4-fluorophenyl)-3,4-dihydroisoquinoline-2(1H)-carboxylate]
- EC50: 131 nM
